According to PMC8880564, “Design, Synthesis, and Biological Evaluation of a Novel VEGFR-2 Inhibitor Based on a 1,2,5-Oxadiazole-2-Oxide Scaffold with MAPK Signaling Pathway Inhibition” (Pharmaceuticals, 2022):

Legend:
Assay type in all cases: cell-based
MDA-MB-435 = assay: NCI-60 one-dose SRB screening; conditions: Homo sapiens, MDA-MB-435, Melanoma, 10 µM one dose, 48 h, read-out: growth percentage
SN12C = assay: NCI-60 one-dose SRB screening; conditions: Homo sapiens, Renal Cancer, 10 µM one dose, 48 h, read-out: growth percentage
EKVX = assay: NCI-60 one-dose SRB screening; conditions: Homo sapiens, Non-Small Cell Lung Cancer, 10 µM one dose, 48 h, read-out: growth percentage
K-562 = assay: NCI-60 one-dose SRB screening; conditions: Homo sapiens, K562, K-562, Leukemia, 10 µM one dose, 48 h, read-out: growth percentage
HCC-2998 = assay: NCI-60 one-dose SRB screening; conditions: Homo sapiens, HCC-2998, Colon Cancer, 10 µM one dose, 48 h, read-out: growth percentage
BT-549 = assay: NCI-60 one-dose SRB screening; conditions: Homo sapiens, BT-549, Breast Cancer, 10 µM one dose, 48 h, read-out: growth percentage
OVCAR-8 = assay: NCI-60 one-dose SRB screening; conditions: Homo sapiens, OVCAR-8, Ovarian Cancer, 10 µM one dose, 48 h, read-out: growth percentage
SF-295 = assay: NCI-60 one-dose SRB screening; conditions: Homo sapiens, SF-295, CNS Cancer, 10 µM one dose, 48 h, read-out: growth percentage
HOP-62 = assay: NCI-60 one-dose SRB screening; conditions: Homo sapiens, HOP-62, Non-Small Cell Lung Cancer, 10 µM one dose, 48 h, read-out: growth percentage
NCI-H460 = assay: NCI-60 one-dose SRB screening; conditions: Homo sapiens, NCI-H460, Non-Small Cell Lung Cancer, 10 µM one dose, 48 h, read-out: growth percentage
HCT-116 = assay: NCI-60 one-dose SRB screening; conditions: Homo sapiens, HCT-116, Colon Cancer, 10 µM one dose, 48 h, read-out: growth percentage
HL-60(TB) = assay: NCI-60 one-dose SRB screening; conditions: Homo sapiens, Leukemia, 10 µM one dose, 48 h, read-out: growth percentage
MDA-MB-468 = assay: NCI-60 one-dose SRB screening; conditions: Homo sapiens, MDA-MB-468, Breast Cancer, 10 µM one dose, 48 h, read-out: growth percentage
LOX IMVI = assay: NCI-60 one-dose SRB screening; conditions: Homo sapiens, Melanoma, 10 µM one dose, 48 h, read-out: growth percentage
SK-OV-3 = assay: NCI-60 one-dose SRB screening; conditions: Homo sapiens, SK-OV-3, Ovarian Cancer, 10 µM one dose, 48 h, read-out: growth percentage
A549/ATCC = assay: NCI-60 one-dose SRB screening; conditions: Homo sapiens, Non-Small Cell Lung Cancer, 10 µM one dose, 48 h, read-out: growth percentage
CAKI-1 = assay: NCI-60 one-dose SRB screening; conditions: Homo sapiens, CAKI-1, Renal Cancer, 10 µM one dose, 48 h, read-out: growth percentage
OVCAR-4 = assay: NCI-60 one-dose SRB screening; conditions: Homo sapiens, OVCAR-4, Ovarian Cancer, 10 µM one dose, 48 h, read-out: growth percentage
HT29 = assay: NCI-60 one-dose SRB screening; conditions: Homo sapiens, HT-29, HT29, Colon Cancer, 10 µM one dose, 48 h, read-out: growth percentage
PC-3 = assay: NCI-60 one-dose SRB screening; conditions: Homo sapiens, PC-3, Prostate Cancer, 10 µM one dose, 48 h, read-out: growth percentage
[1] = system: NCI-59 human cancer cell lines; assay: NCI-60 one-dose SRB screening, full panel and subpanels; conditions: for activity at 10 µM: mean over the full panel, 10 µM one dose, 48 h, SRB, read-out: growth percentage, Mean

With `Cc1nn(-c2ccccc2)c2ncnc(Nc3ccc(OCc4c(-c5ccccc5)no[n+]4[O-])cc3)c12` [6c, 3-((4-((3-methyl-1-phenyl-1H-pyrazolo[3,4-d]pyrimidin-4-yl)amino)phenoxy)methyl)-4-phenyl-1,2,5-oxadiazole 2-oxide] the activity at 10 µM (MDA-MB-435) was 93.4%, the activity at 10 µM (SN12C) was 87.9% and the activity at 10 µM (EKVX) was 90.4%. The activity at 10 µM (K-562) was 90.2%, the activity at 10 µM (HCC-2998) was 106% and the activity at 10 µM (BT-549) was 101%. For the same compound, the activity at 10 µM (OVCAR-8) was 101%, the activity at 10 µM (SF-295) was 99% and the activity at 10 µM (HOP-62) was 105%. It also gave an activity at 10 µM (NCI-H460) of 109%, an activity at 10 µM (HCT-116) of 81.8% and an activity at 10 µM (HL-60(TB)) of 119%. The activity at 10 µM (MDA-MB-468) was 97.1%, the activity at 10 µM (LOX IMVI) was 101% and the activity at 10 µM (SK-OV-3) was 104%. For the same compound, the activity at 10 µM (A549/ATCC) was 99.3%, the activity at 10 µM (CAKI-1) was 86% and the activity at 10 µM (OVCAR-4) was 90.6%. For the same compound, the activity at 10 µM (HT29) was 93.2%, the activity at 10 µM (PC-3) was 83.5% and the inhibition at 10 µM ([1]; Homo sapiens, full NCI-59 panel, 10 µM, read-out: mean growth inhibition % (MGI%, GI%)) was 1.58 to 4.57%. It also gave an activity at 10 µM ([1]; Homo sapiens) of 96.2%.

With `Cc1nc(Nc2ccc(OCc3c(-c4ccccc4)no[n+]3[O-])cc2)c2cnn(-c3ccccc3)c2n1` [6b, 3-((4-((6-methyl-1-phenyl-1H-pyrazolo[3,4-d]pyrimidin-4-yl)amino)phenoxy)methyl)-4-phenyl-1,2,5-oxadiazole 2-oxide] the activity at 10 µM (MDA-MB-435) was 99.7%, the activity at 10 µM (SN12C) was 101% and the activity at 10 µM (EKVX) was 93.1%. It also gave an activity at 10 µM (K-562) of 111%, an activity at 10 µM (HCC-2998) of 108% and an activity at 10 µM (BT-549) of 95%. The activity at 10 µM (OVCAR-8) was 105%, the activity at 10 µM (SF-295) was 97.1% and the activity at 10 µM (HOP-62) was 103%. It also gave an activity at 10 µM (NCI-H460) of 111%, an activity at 10 µM (HCT-116) of 99.2% and an activity at 10 µM (HL-60(TB)) of 122%. It also gave an activity at 10 µM (MDA-MB-468) of 94.3%, an activity at 10 µM (LOX IMVI) of 97.6% and an activity at 10 µM (SK-OV-3) of 110%. It also gave an activity at 10 µM (A549/ATCC) of 101%, an activity at 10 µM (CAKI-1) of 87.6% and an activity at 10 µM (OVCAR-4) of 102%. It also gave an activity at 10 µM (HT29) of 106%, an activity at 10 µM (PC-3) of 103% and an activity at 10 µM ([1]; Homo sapiens) of 102%. The “enhancement of the growth percentage (mean)” value ([1]; full NCI-59 panel, 10 µM) was 1–5%.

For `Cc1nn(-c2ccc(Br)cc2)c2nc(CNc3ccc(NCc4c(-c5ccccc5)no[n+]4[O-])cc3)[nH]c(=O)c12` [14c, 3-(((4-(((1-(4-bromophenyl)-3-methyl-4-oxo-4,5-dihydro-1H-pyrazolo[3,4-d]pyrimidin-6-yl)methyl)amino)phenyl)amino)methyl)-4-phenyl-1,2,5-oxadiazole 2-oxide], the activity at 10 µM (MDA-MB-435) was 101%, the activity at 10 µM (SN12C) was 98.8% and the activity at 10 µM (EKVX) was 98.9%. It also gave an activity at 10 µM (K-562) of 111%, an activity at 10 µM (HCC-2998) of 112% and an activity at 10 µM (BT-549) of 98.1%. For the same compound, the activity at 10 µM (OVCAR-8) was 112%, the activity at 10 µM (SF-295) was 115% and the activity at 10 µM (HOP-62) was 116%. It also gave an activity at 10 µM (NCI-H460) of 107%, an activity at 10 µM (HCT-116) of 93.8% and an activity at 10 µM (HL-60(TB)) of 103%. The activity at 10 µM (MDA-MB-468) was 94.4%, the activity at 10 µM (LOX IMVI) was 102% and the activity at 10 µM (SK-OV-3) was 107%. The activity at 10 µM (A549/ATCC) was 97.4%, the activity at 10 µM (CAKI-1) was 90.2% and the activity at 10 µM (OVCAR-4) was 127%. It also gave an activity at 10 µM (HT29) of 110%, an activity at 10 µM (PC-3) of 96.6% and an activity at 10 µM ([1]; Homo sapiens) of 103%. The “enhancement of the growth percentage (mean)” value ([1]; full NCI-59 panel, 10 µM) was 3.35%.

`Cc1nn(-c2ccccc2)c2nc(CCl)[nH]c(=O)c12` [13b] showed an activity at 10 µM (MDA-MB-435) of 99%, an activity at 10 µM (SN12C) of 95.7% and an activity at 10 µM (EKVX) of 99.2%. It also gave an activity at 10 µM (K-562) of 19.2%, an activity at 10 µM (HCC-2998) of 108% and an activity at 10 µM (BT-549) of 100%. For the same compound, the activity at 10 µM (OVCAR-8) was 112%, the activity at 10 µM (SF-295) was 109% and the activity at 10 µM (HOP-62) was 98.3%. For the same compound, the activity at 10 µM (NCI-H460) was 102%, the activity at 10 µM (HCT-116) was 24.9% and the activity at 10 µM (HL-60(TB)) was 33.1%. It also gave an activity at 10 µM (MDA-MB-468) of 26.6%, an activity at 10 µM (LOX IMVI) of 101% and an activity at 10 µM (SK-OV-3) of 105%. For the same compound, the activity at 10 µM (A549/ATCC) was 97.7%, the activity at 10 µM (CAKI-1) was 99.6% and the activity at 10 µM (OVCAR-4) was 90.9%. For the same compound, the activity at 10 µM (HT29) was 106%, the activity at 10 µM (PC-3) was 102% and the activity at 10 µM ([1]; Homo sapiens) was 82.8%.
